Measured values from PubChem BioAssay (NCI).
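Interpolation was linear, between the two tested concentrations surrounding the appropriate level; five concentrations were tested over 48 hours in 96-well plates. The concentration for full growth arrest is given as TGI.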 *1 amine or outer side, *2 acyl side, *3 side chain or, on linkers, in order; H or OH if unused. Where a SMILES comes first, the peptide text is derived from it. The star is where a group is joined. γGlu = O=C(O)[CH](CCC(=O)[*:2])N[*:1]; Cbz = O=C(OCc1ccccc1)*; NHOH = ON*

What was measured:
Experiment in all cases: NCI anticancer screen, dose series, 48 h
CAKI-1 renal = tested on: CAKI-1 renal
HOP-62 NSCLC = tested on: HOP-62 NSCLC
HS 578T breast = tested on: HS 578T breast
HT29 colon = tested on: HT29 colon
MALME-3M melanoma = tested on: MALME-3M melanoma
OVCAR-4 ovarian = tested on: OVCAR-4 ovarian
SF-295 CNS = tested on: SF-295 CNS
SNB-75 CNS = tested on: SNB-75 CNS
IGROV1 ovarian = tested on: IGROV1 ovarian
RXF 393 renal = tested on: RXF 393 renal

| SMILES | TGI (CAKI-1 renal) [µM] | TGI (HOP-62 NSCLC) [µM] | TGI (HS 578T breast) [µM] | TGI (HT29 colon) [µM] | TGI (MALME-3M melanoma) [µM] | TGI (OVCAR-4 ovarian) [µM] | TGI (SF-295 CNS) [µM] | TGI (SNB-75 CNS) [µM] | TGI (IGROV1 ovarian) [µM] | TGI (RXF 393 renal) [µM] |
| --- | --- | --- | --- | --- | --- | --- | --- | --- | --- | --- |
| O=[N+]([O-])C(/C(Cl)=C(/Cl)N1CCOCC1)=C1\Nc2ccccc2O1 | > 100 | > 100 | > 100 | > 100 | > 100 | > 100 | > 100 | > 100 | – | – |
| COc1ccc(Nc2nc3ccccc3nc2-c2cccs2)cc1OC | > 10 | > 10 | > 10 | > 10 | – | > 10 | > 10 | > 10 | > 10 | > 10 |
| Cc1c2ccccc2c(=O)n2c(-c3ccccn3)cccc12 | > 100 | > 100 | – | > 100 | > 100 | > 100 | > 100 | > 100 | > 100 | > 100 |
| O=C1CC(Nc2ccccc2)c2c(Cl)sc(Cl)c21 (configuration not stated) | 1.36 | 8.1 | > 100 | 3.92 | 2.83 | 4.21 | 19.5 | 4.52 | 3.44 | – |
| COc1cc(OC)c(-n2[nH]c(=O)n(C)c2=O)c(OC)c1 | > 100 | – | > 100 | > 100 | > 100 | > 100 | – | > 100 | > 100 | > 100 |
| Cc1ccc(N=NC(=Nc2ccc(F)cc2)c2ccc(N(CCC#N)CCC#N)cc2)cc1 | > 100 | > 100 | > 100 | > 100 | – | > 100 | > 100 | > 100 | > 100 | > 100 |
| CN(C)N1C(=C(C#N)C#N)C(c2ccccc2)CC1C#N (configuration not stated) | > 100 | > 100 | > 100 | > 100 | > 100 | – | > 100 | > 100 | > 100 | > 100 |
| CC(C)C(Sc1nc(-c2ccccc2)c(-c2ccccc2)[nH]1)C(=O)N/N=C/c1ccc(Cl)cc1 (configuration not stated) | 69.9 | 42.5 | – | 36.9 | 47.7 | 98.4 | 47.5 | 67.6 | 48.8 | – |
| Cc1ccc(S(=O)(=O)N(CC(O)COc2ccccc2)c2c(F)c(F)c(F)c(F)c2F)cc1 (configuration not stated) | 26.7 | 35.2 | 42.6 | 33 | 53.1 | 29.2 | 37.4 | 36.5 | – | – |
| CCCCOC(=O)Nc1ccc(S(=O)(=O)Nc2c(Cl)cccc2Cl)cc1 | 82.7 | > 100 | > 100 | 32 | 62.7 | 42.5 | > 100 | – | 79.5 | > 100 |
| COC(=O)C12C(=O)CC3CCC1C32C(=O)OC (configuration not stated) | > 100 | > 100 | – | > 100 | > 100 | > 100 | > 100 | > 100 | > 100 | > 100 |
| CCOC(=O)CCC(NC(=O)C(CC(=O)OC)NC(=O)OCc1ccccc1)C(=O)NC(CC(=O)OC)C(=O)NC(CCC(=O)OCC)C(=O)NC(CC(=O)OC)C(=O)NC(CCC(=O)OCC)C(=O)NC(CC(=O)OCC)C(=O)OCC (configuration not stated) (Cbz-D(OMe)E(OEt)D(OMe)E(OEt)D(OMe)E(OEt)D(OEt)-OEt; configuration not given here) | – | > 100 | – | > 100 | > 100 | > 100 | – | – | > 100 | – |
| Cc1cccc(C)c1NC(=S)N/C=C(\C#N)C(N)=O | > 100 | > 100 | > 100 | > 100 | > 100 | > 100 | > 100 | – | > 100 | > 100 |
| CCOC(=O)c1nc(SC)sc1NC(=O)c1ccc(OC)cc1 | > 100 | > 100 | > 100 | > 100 | 88.8 | 89.9 | > 100 | – | > 100 | > 100 |
| NC(CCC(=O)NC(CCC(=O)NO)C(=O)NCC(=O)O)C(=O)O (configuration not stated) (γGlu-Glu(NHOH)-Gly-OH; configuration not given here) | > 100 | > 100 | – | > 100 | – | > 100 | > 100 | > 100 | > 100 | > 100 |
| CN(C(=O)Cc1cc(Cl)c(Cl)cc1NC(=O)CCCN)[C@H]1CCCC[C@@H]1N1CCCC1 | > 100 | > 100 | – | 47.7 | 31.1 | > 100 | > 100 | – | > 100 | 48.7 |
| O=C(CSc1nc2ccccc2c(=O)n1-c1ccccc1)N=Nc1c(O)[nH]c2ccc(Br)cc12 | 3.69 | 7.07 | > 100 | 3.7 | 5.74 | – | 8.93 | 11.5 | 5.03 | 7.68 |
| CCCSc1ccc2[nH]c(N3C(=O)/C(=C/c4ccc(O)c(OC)c4)N=C3c3ccccc3)cc2c1 | > 100 | > 100 | 14.3 | 88.9 | 84 | – | – | > 100 | > 100 | > 100 |
| CC(C)NC1CCCCC2c3ccccc3C12O (configuration not stated) | – | > 100 | – | > 100 | > 100 | > 100 | > 100 | > 100 | – | > 100 |
| CN1CCN(c2n[nH]c(=O)c3c2nnn3Cc2ccccc2)CC1 | > 100 | > 100 | – | > 100 | > 100 | > 100 | > 100 | > 100 | – | > 100 |
| CCO/C(O)=c1/s/c(=C2/SC(=S)N(c3ccc(C)cc3)C2=O)n(-c2ccccc2)c1=N | – | 81.9 | 66.8 | > 100 | > 100 | 44.3 | 59.7 | 22 | > 100 | – |
| CN(C)CC1CCC/C(=C\c2ccc(Cl)c(Cl)c2)C1=O (configuration not stated) | 7.7 | 26.8 | 9.51 | > 33.9 | 20.3 | 14.3 | 25.8 | 21.2 | 12.1 | – |
| C/C(=N/NC(=S)N1CCCCCC1)c1cccc(/C(C)=N\NC(=S)N2CCCCCC2)n1 | – | 3.82 | 8.82 | 4.65 | 2.28 | 2.44 | 4.12 | 4.68 | 2.86 | 3.69 |
